Measurements taken from the NIST ThermoML archive (doi:10.1016/j.jct.2015.08.010).
± gives the expanded uncertainty stated by the source.

How the values were obtained:
[1] = 100 kPa, Liquid; for viscosity: Falling or rolling sphere viscometry; for mass density: Vibrating tube method
[2] = xn = mol fraction of the nth substance listed; conditions: 100 kPa, Liquid, Falling or rolling sphere viscometry, x2 = 0

Q: Which viscosity ([1]; 293.15 K) does the source give for O [water] here?
A: The viscosity was 1.002 ± 0.021 mPa·s.

Q: And the viscosity ([1]; 298.15 K)?
A: The viscosity was 0.89 ± 0.02 mPa·s.

Q: What about the viscosity ([1]; 303.15 K) of the same compound?
A: Its viscosity is 0.797 ± 0.017 mPa·s.

Q: And the viscosity ([1]; 308.15 K)?
A: The viscosity was 0.718 ± 0.015 mPa·s.

Q: And the viscosity ([1]; 313.15 K)?
A: The viscosity was 0.651 ± 0.014 mPa·s.

Q: What does the source list for O [water] + C1CCC2=NCCC[NH+]2CC1.c1c[n-]cn1?
A: viscosity ([2]; 293.15 K): 1.002 ± 0.021 mPa·s; viscosity ([2]; 298.15 K): 0.89 ± 0.02 mPa·s; viscosity ([2]; 303.15 K): 0.797 ± 0.017 mPa·s; viscosity ([2]; 308.15 K): 0.718 ± 0.015 mPa·s; viscosity ([2]; 313.15 K): 0.651 ± 0.014 mPa·s

Q: Which results are given for C1CCC2=NCCC[NH+]2CC1.c1c[n-]cn1 [1,8-diazabicyclo[5.4.0]undec-7-enium imidazolide]?
A: viscosity ([1]; 293.15 K): 47.82 ± 1.2 mPa·s; mass density ([1]; 293.15 K): 1053.63 ± 4.3 kg/m3; viscosity ([1]; 298.15 K): 34.94 ± 0.85 mPa·s; mass density ([1]; 298.15 K): 1049.78 ± 4.3 kg/m3; viscosity ([1]; 303.15 K): 26.36 ± 0.64 mPa·s; mass density ([1]; 303.15 K): 1045.94 ± 4.3 kg/m3; viscosity ([1]; 308.15 K): 20.5 ± 0.49 mPa·s; mass density ([1]; 308.15 K): 1042.11 ± 4.2 kg/m3; viscosity ([1]; 313.15 K): 16.28 ± 0.39 mPa·s; mass density ([1]; 313.15 K): 1038.28 ± 4.2 kg/m3
